Where “and” joins values, the source holds several entries; their conditions need not be identical. Identical values can stand only once. Numbers after ± are expanded uncertainties.
Conditions: 313.14 K, Liquid, Vibrating tube method

CCCCCCCCCC [decane]
Conditions	mass density
4519 kPa	718.5 ± 2 kg/m3
4530 kPa	718.5 ± 2 kg/m3
4546 kPa	718.5 ± 2 kg/m3
4557 kPa	718.5 ± 2 kg/m3
4572 kPa	718.5 ± 2 kg/m3
4582 kPa	718.5 ± 2 kg/m3
4599 kPa	718.5 ± 2 kg/m3
4610 kPa	718.6 ± 2 kg/m3
4621 kPa	718.5 ± 2 kg/m3
4637 kPa	718.6 ± 2 kg/m3
4652 kPa	718.6 ± 2 kg/m3
4667 kPa	718.6 ± 2 kg/m3
4685 kPa	718.6 ± 2 kg/m3
4705 kPa	718.7 ± 2 kg/m3
4723 kPa	718.6 ± 2 kg/m3
4741 kPa	718.8 ± 2 kg/m3
4755 kPa	718.6 ± 2 kg/m3
4774 kPa	718.6 ± 2 kg/m3
4792 kPa	718.7 ± 2 kg/m3
4814 kPa	718.7 ± 2 kg/m3
4825 kPa	718.7 ± 2 kg/m3
4842 kPa	718.7 ± 2 kg/m3
4859 kPa	718.8 ± 2 kg/m3
4873 kPa	718.8 ± 2 kg/m3
4891 kPa	718.7 ± 2 kg/m3
4913 kPa	718.8 ± 2 kg/m3
4930 kPa	718.8 ± 2 kg/m3
4945 kPa	718.8 ± 2 kg/m3
4968 kPa	718.8 ± 2 kg/m3
4991 kPa	718.9 ± 2 kg/m3
5004 kPa	718.8 ± 2 kg/m3
5027 kPa	718.9 ± 2 kg/m3
5042 kPa	718.9 ± 2 kg/m3
5063 kPa	718.9 ± 2 kg/m3
5079 kPa	719 ± 2 kg/m3
5092 kPa	719 ± 2 kg/m3
5111 kPa	719 ± 2 kg/m3
5130 kPa	719 ± 2 kg/m3
5149 kPa	719 ± 2 kg/m3
5165 kPa	718.9 ± 2 kg/m3
5185 kPa	719 ± 2 kg/m3
5207 kPa	719 ± 2 kg/m3
5230 kPa	719.2 ± 2 kg/m3
5251 kPa	719.2 ± 2 kg/m3
5270 kPa	719.1 ± 2 kg/m3
5300 kPa	719.2 ± 2 kg/m3
5315 kPa	719.3 ± 2 kg/m3
5316 kPa	719.2 ± 2 kg/m3
5318 kPa	719.2 ± 2 kg/m3
5320 kPa	719.2 ± 2 kg/m3
5321 kPa	719.1 ± 2 kg/m3 and 719.3 ± 2 kg/m3
5322 kPa	719.2 ± 2 kg/m3
5338 kPa	719.1 ± 2 kg/m3
5355 kPa	719.1 ± 2 kg/m3
5373 kPa	719.2 ± 2 kg/m3
5385 kPa	719.3 ± 2 kg/m3
5399 kPa	719.3 ± 2 kg/m3
5414 kPa	719.1 ± 2 kg/m3
5430 kPa	719.2 ± 2 kg/m3
5444 kPa	719.2 ± 2 kg/m3
5461 kPa	719.2 ± 2 kg/m3
5478 kPa	719.2 ± 2 kg/m3
5498 kPa	719.3 ± 2 kg/m3
5515 kPa	719.3 ± 2 kg/m3
5537 kPa	719.4 ± 2 kg/m3
5552 kPa	719.4 ± 2 kg/m3
5568 kPa	719.4 ± 2 kg/m3
5586 kPa	719.4 ± 2 kg/m3
5603 kPa	719.4 ± 2 kg/m3
5622 kPa	719.4 ± 2 kg/m3
5636 kPa	719.4 ± 2 kg/m3
5655 kPa	719.4 ± 2 kg/m3
5671 kPa	719.5 ± 2 kg/m3
5686 kPa	719.4 ± 2 kg/m3
5705 kPa	719.4 ± 2 kg/m3
5721 kPa	719.5 ± 2 kg/m3
5739 kPa	719.5 ± 2 kg/m3
5753 kPa	719.5 ± 2 kg/m3
5771 kPa	719.5 ± 2 kg/m3
5788 kPa	719.6 ± 2 kg/m3
5803 kPa	719.5 ± 2 kg/m3
5819 kPa	719.6 ± 2 kg/m3
5838 kPa	719.5 ± 2 kg/m3
5852 kPa	719.6 ± 2 kg/m3
5871 kPa	719.7 ± 2 kg/m3
5889 kPa	719.6 ± 2 kg/m3
5906 kPa	719.7 ± 2 kg/m3
5927 kPa	719.6 ± 2 kg/m3
5946 kPa	719.7 ± 2 kg/m3
5963 kPa	719.6 ± 2 kg/m3
5982 kPa	719.7 ± 2 kg/m3
6002 kPa	719.7 ± 2 kg/m3
6019 kPa	719.8 ± 2 kg/m3
6042 kPa	719.8 ± 2 kg/m3
6064 kPa	719.8 ± 2 kg/m3
6084 kPa	719.8 ± 2 kg/m3
6100 kPa	719.8 ± 2 kg/m3
6120 kPa	719.9 ± 2 kg/m3
6140 kPa	719.8 ± 2 kg/m3
6162 kPa	719.8 ± 2 kg/m3
6180 kPa	719.9 ± 2 kg/m3
6198 kPa	719.9 ± 2 kg/m3
6202 kPa	719.8 ± 2 kg/m3
6204 kPa	719.9 ± 2 kg/m3
6213 kPa	719.9 ± 2 kg/m3
6230 kPa	719.9 ± 2 kg/m3
6246 kPa	719.9 ± 2 kg/m3
6262 kPa	720 ± 2 kg/m3
6278 kPa	719.9 ± 2 kg/m3
6295 kPa	720 ± 2 kg/m3
6313 kPa	720 ± 2 kg/m3
6332 kPa	720 ± 2 kg/m3
6353 kPa	720.1 ± 2 kg/m3
6367 kPa	720 ± 2 kg/m3
6383 kPa	720 ± 2 kg/m3
6398 kPa	720.1 ± 2 kg/m3
6420 kPa	720.1 ± 2 kg/m3
6438 kPa	720.1 ± 2 kg/m3
6453 kPa	720 ± 2 kg/m3
6472 kPa	720.1 ± 2 kg/m3
6484 kPa	720 ± 2 kg/m3
6500 kPa	720.1 ± 2 kg/m3
6518 kPa	720.1 ± 2 kg/m3
6531 kPa	720.1 ± 2 kg/m3
6545 kPa	720.1 ± 2 kg/m3
6559 kPa	720.1 ± 2 kg/m3
6575 kPa	720.1 ± 2 kg/m3
6586 kPa	720.2 ± 2 kg/m3
6599 kPa	720.3 ± 2 kg/m3
6611 kPa	720.2 ± 2 kg/m3
6626 kPa	720.1 ± 2 kg/m3
6643 kPa	720.3 ± 2 kg/m3
6658 kPa	720.3 ± 2 kg/m3
6675 kPa	720.3 ± 2 kg/m3
6689 kPa	720.2 ± 2 kg/m3
6708 kPa	720.2 ± 2 kg/m3
6723 kPa	720.2 ± 2 kg/m3
6742 kPa	720.4 ± 2 kg/m3
6755 kPa	720.3 ± 2 kg/m3
6767 kPa	720.4 ± 2 kg/m3
6785 kPa	720.4 ± 2 kg/m3
6815 kPa	720.3 ± 2 kg/m3
6833 kPa	720.3 ± 2 kg/m3
6865 kPa	720.4 ± 2 kg/m3
6886 kPa	720.5 ± 2 kg/m3
6901 kPa	720.4 ± 2 kg/m3
6948 kPa	720.6 ± 2 kg/m3
6966 kPa	720.6 ± 2 kg/m3
6975 kPa	720.6 ± 2 kg/m3
6989 kPa	720.6 ± 2 kg/m3
7007 kPa	720.5 ± 2 kg/m3
7019 kPa	720.6 ± 2 kg/m3
7031 kPa	720.6 ± 2 kg/m3
7045 kPa	720.6 ± 2 kg/m3
7061 kPa	720.6 ± 2 kg/m3
7077 kPa	720.6 ± 2 kg/m3
7089 kPa	720.7 ± 2 kg/m3
7101 kPa	720.6 ± 2 kg/m3
7118 kPa	720.6 ± 2 kg/m3
7136 kPa	720.7 ± 2 kg/m3
7149 kPa	720.6 ± 2 kg/m3
7165 kPa	720.7 ± 2 kg/m3
7180 kPa	720.7 ± 2 kg/m3
7195 kPa	720.7 ± 2 kg/m3
7209 kPa	720.7 ± 2 kg/m3
7226 kPa	720.7 ± 2 kg/m3
7241 kPa	720.8 ± 2 kg/m3
7252 kPa	720.6 ± 2 kg/m3
7264 kPa	720.7 ± 2 kg/m3
7279 kPa	720.8 ± 2 kg/m3
7292 kPa	720.8 ± 2 kg/m3
7306 kPa	720.8 ± 2 kg/m3
7317 kPa	720.7 ± 2 kg/m3
7332 kPa	720.8 ± 2 kg/m3
7347 kPa	720.8 ± 2 kg/m3
7360 kPa	720.9 ± 2 kg/m3
7375 kPa	720.8 ± 2 kg/m3
7392 kPa	720.9 ± 2 kg/m3
7410 kPa	720.8 ± 2 kg/m3
7423 kPa	720.9 ± 2 kg/m3
7441 kPa	720.8 ± 2 kg/m3
7455 kPa	720.9 ± 2 kg/m3
7473 kPa	720.9 ± 2 kg/m3
7487 kPa	721 ± 2 kg/m3
7507 kPa	721 ± 2 kg/m3
7523 kPa	721 ± 2 kg/m3
7537 kPa	720.9 ± 2 kg/m3
7553 kPa	720.9 ± 2 kg/m3
7569 kPa	721.1 ± 2 kg/m3
7590 kPa	721 ± 2 kg/m3
7605 kPa	721 ± 2 kg/m3
7621 kPa	721.1 ± 2 kg/m3
7635 kPa	721.1 ± 2 kg/m3
7652 kPa	721.1 ± 2 kg/m3
7666 kPa	721.1 ± 2 kg/m3
7683 kPa	721.1 ± 2 kg/m3
7702 kPa	721 ± 2 kg/m3
7717 kPa	721.1 ± 2 kg/m3
7731 kPa	721.2 ± 2 kg/m3
7750 kPa	721.2 ± 2 kg/m3
7768 kPa	721.2 ± 2 kg/m3
7782 kPa	721.1 ± 2 kg/m3
7805 kPa	721.2 ± 2 kg/m3
7820 kPa	721.3 ± 2 kg/m3
7835 kPa	721.2 ± 2 kg/m3
7851 kPa	721.3 ± 2 kg/m3
7873 kPa	721.2 ± 2 kg/m3
7890 kPa	721.3 ± 2 kg/m3
7910 kPa	721.2 ± 2 kg/m3
7922 kPa	721.3 ± 2 kg/m3
7941 kPa	721.2 ± 2 kg/m3
7959 kPa	721.4 ± 2 kg/m3
8144 kPa	721.4 ± 2 kg/m3
8162 kPa	721.4 ± 2 kg/m3
8174 kPa	721.5 ± 2 kg/m3
8184 kPa	721.6 ± 2 kg/m3
8194 kPa	721.6 ± 2 kg/m3
8205 kPa	721.5 ± 2 kg/m3
8220 kPa	721.6 ± 2 kg/m3
8237 kPa	721.5 ± 2 kg/m3
8248 kPa	721.5 ± 2 kg/m3
8262 kPa	721.5 ± 2 kg/m3
8277 kPa	721.6 ± 2 kg/m3
8293 kPa	721.5 ± 2 kg/m3
8309 kPa	721.7 ± 2 kg/m3
8321 kPa	721.6 ± 2 kg/m3
8338 kPa	721.7 ± 2 kg/m3
8352 kPa	721.6 ± 2 kg/m3
8364 kPa	721.7 ± 2 kg/m3
8383 kPa	721.6 ± 2 kg/m3
8395 kPa	721.7 ± 2 kg/m3
8410 kPa	721.7 ± 2 kg/m3
8421 kPa	721.7 ± 2 kg/m3
8435 kPa	721.8 ± 2 kg/m3
8448 kPa	721.8 ± 2 kg/m3
8462 kPa	721.7 ± 2 kg/m3
8482 kPa	721.9 ± 2 kg/m3
8494 kPa	721.8 ± 2 kg/m3
8514 kPa	721.7 ± 2 kg/m3
8524 kPa	721.8 ± 2 kg/m3
8544 kPa	721.9 ± 2 kg/m3
8559 kPa	721.8 ± 2 kg/m3
8579 kPa	721.8 ± 2 kg/m3
8592 kPa	721.8 ± 2 kg/m3
8614 kPa	721.8 ± 2 kg/m3
8629 kPa	721.8 ± 2 kg/m3
8680 kPa	721.9 ± 2 kg/m3
8691 kPa	722.1 ± 2 kg/m3
8725 kPa	722.1 ± 2 kg/m3
8740 kPa	722 ± 2 kg/m3
8754 kPa	722 ± 2 kg/m3
8773 kPa	722 ± 2 kg/m3
8791 kPa	722 ± 2 kg/m3
8807 kPa	722.1 ± 2 kg/m3
8821 kPa	722 ± 2 kg/m3
8835 kPa	721.9 ± 2 kg/m3
8858 kPa	722.1 ± 2 kg/m3
8876 kPa	722.2 ± 2 kg/m3
8897 kPa	722.1 ± 2 kg/m3
8911 kPa	722.1 ± 2 kg/m3
8930 kPa	722.1 ± 2 kg/m3
8944 kPa	722 ± 2 kg/m3
8964 kPa	722 ± 2 kg/m3
8980 kPa	722.1 ± 2 kg/m3
9004 kPa	722.1 ± 2 kg/m3
9023 kPa	722.2 ± 2 kg/m3
9038 kPa	722.2 ± 2 kg/m3
9053 kPa	722.2 ± 2 kg/m3
9075 kPa	722.3 ± 2 kg/m3
9092 kPa	722.2 ± 2 kg/m3
9106 kPa	722.2 ± 2 kg/m3
9121 kPa	722.3 ± 2 kg/m3
9138 kPa	722.3 ± 2 kg/m3
